Source: PubChem BioAssay AID256 (DTP/NCI, 2004)
Several values for one entry are separate records, joined by “and”; a condition that tells them apart may be missing. Equal values may be shown once. Inconclusive results and toxic doses are left out. Rule for the calls: active = survival T/C of 150% or more; inactive = T/C below 125% in these data.

Test system: CD2F1 mice, L1210 leukemia ip, survival T/C
Assay: NCI In Vivo Anticancer Drug Screen. Data for tumor model L1210 Leukemia (intraperitoneal) in CD2F1 (CDF1) mice
Conditions: higher = longer survival
Outline: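 Each value reflects a quotient of treated over vehicle control outcomes in mice with a transplanted tumor.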

[1] = endpoint: mean survival time, dose: 100.0 mg/kg/injection, schedule: Q04DX003 (ip), vehicle: saline with Tween-80
[2] = endpoint: mean survival time, dose: 200.0 mg/kg/injection, schedule: Q04DX003 (ip), vehicle: saline with Tween-80
[3] = endpoint: mean survival time, dose: 400.0 mg/kg/injection, schedule: Q04DX003 (ip), vehicle: saline with Tween-80
[4] = endpoint: mean survival time, dose: 12.5 mg/kg/injection, schedule: Q01DX009 (ip), vehicle: saline with Tween-80
[5] = endpoint: mean survival time, dose: 25.0 mg/kg/injection, schedule: Q01DX009 (ip), vehicle: saline with Tween-80
[6] = endpoint: mean survival time, dose: 50.0 mg/kg/injection, schedule: Q01DX009 (ip), vehicle: saline with Tween-80
[7] = endpoint: mean survival time, dose: 100.0 mg/kg/injection, schedule: Q01DX001 (ip), vehicle: saline
[8] = endpoint: mean survival time, dose: 75.0 mg/kg/injection, schedule: Q01DX001 (ip), vehicle: other
[9] = endpoint: mean survival time, dose: 150.0 mg/kg/injection, schedule: Q01DX001 (ip), vehicle: other
[10] = endpoint: mean survival time, dose: 300.0 mg/kg/injection, schedule: Q01DX001 (ip), vehicle: other

Measured: T/C

NC(=S)Nc1ccc([N+](=O)[O-])cc1
inactive: endpoint: mean survival time, dose: 25.0 mg/kg/injection, schedule: Q04DX003 (ip), vehicle: other 96 % of control | endpoint: mean survival time, dose: 50.0 mg/kg/injection, schedule: Q04DX003 (ip), vehicle: other 91 % of control | endpoint: mean survival time, dose: 100.0 mg/kg/injection, schedule: Q04DX003 (ip), vehicle: other 88 % of control and 95 % of control

COc1cc2c3c(cccc3c1)C(=O)N(CCN(C)C)C2=O
inactive: endpoint: mean survival time, dose: 5.0 mg/kg/injection, schedule: Q01DX009 (ip), vehicle: saline with Tween-80 98 % of control and 100 % of control | endpoint: mean survival time, dose: 10.0 mg/kg/injection, schedule: Q01DX009 (ip), vehicle: saline with Tween-80 98 % of control and 102 % of control | endpoint: mean survival time, dose: 20.0 mg/kg/injection, schedule: Q01DX009 (ip), vehicle: saline with Tween-80 97 % of control and 101 % of control | endpoint: mean survival time, dose: 40.0 mg/kg/injection, schedule: Q01DX009 (ip), vehicle: saline with Tween-80 100 % of control and 108 % of control | endpoint: mean survival time, dose: 80.0 mg/kg/injection, schedule: Q01DX009 (ip), vehicle: saline with Tween-80 103 % of control and 110 % of control | endpoint: mean survival time, dose: 160.0 mg/kg/injection, schedule: Q01DX009 (ip), vehicle: saline with Tween-80 106 % of control

Cc1c(C)c2c(c(C)c1OC(=O)CCC(=O)O)CCC(C)(CCCC(C)CCCC(C)CCCC(C)C)O2 (stereo not given)
inactive: [1] 102 % of control | [2] 98 % of control | [3] 94 % of control

O=c1ccc2nc3cc(Cl)ccc3sc-2c1
inactive: endpoint: mean survival time, dose: 100.0 mg/kg/injection, schedule: Q04DX003 (ip), vehicle: Klucel (hydroxypropylcellulose) (HPC) 94 % of control | endpoint: mean survival time, dose: 200.0 mg/kg/injection, schedule: Q04DX003 (ip), vehicle: Klucel (hydroxypropylcellulose) (HPC) 94 % of control | endpoint: mean survival time, dose: 400.0 mg/kg/injection, schedule: Q04DX003 (ip), vehicle: Klucel (hydroxypropylcellulose) (HPC) 94 % of control

CC(=O)OC1C(CNC(=O)Oc2ccccc2)OC(n2cnc3c(=O)[nH]c(N)nc32)C1OC(C)=O (stereo not given)
inactive: endpoint: mean survival time, dose: 100.0 mg/kg/injection, schedule: Q01DX001 (ip), vehicle: Klucel (hydroxypropylcellulose) (HPC) 88 % of control | endpoint: mean survival time, dose: 200.0 mg/kg/injection, schedule: Q01DX001 (ip), vehicle: Klucel (hydroxypropylcellulose) (HPC) 94 % of control | endpoint: mean survival time, dose: 400.0 mg/kg/injection, schedule: Q01DX001 (ip), vehicle: Klucel (hydroxypropylcellulose) (HPC) 91 % of control

C=Cc1ccncc1
inactive: [4] 91 % of control | [5] 95 % of control | [6] 98 % of control

CC(=O)O[C@@H]1C[C@H](C)CC[C@H]1C(C)C
inactive: [1] 98 % of control | [2] 89 % of control

NC(CCl)=NCC12CC3CC(CC(C3)C1)C2
inactive: endpoint: median survival time, dose: 3.0 mg/kg/injection, schedule: Q01DX009 (ip), vehicle: Klucel (hydroxypropylcellulose) (HPC) 104 % of control | endpoint: median survival time, dose: 6.0 mg/kg/injection, schedule: Q01DX009 (ip), vehicle: Klucel (hydroxypropylcellulose) (HPC) 107 % of control | endpoint: median survival time, dose: 12.0 mg/kg/injection, schedule: Q01DX009 (ip), vehicle: Klucel (hydroxypropylcellulose) (HPC) 108 % of control | endpoint: median survival time, dose: 24.0 mg/kg/injection, schedule: Q01DX009 (ip), vehicle: Klucel (hydroxypropylcellulose) (HPC) 110 % of control

CC1(C2CC(=O)c3c(O)ccc(O)c3C2)OCCO1 (stereo not given)
inactive: endpoint: mean survival time, dose: 25.0 mg/kg/injection, schedule: Q01DX009 (ip), vehicle: Klucel (hydroxypropylcellulose) (HPC) 104 % of control | endpoint: mean survival time, dose: 50.0 mg/kg/injection, schedule: Q01DX009 (ip), vehicle: Klucel (hydroxypropylcellulose) (HPC) 109 % of control | endpoint: mean survival time, dose: 100.0 mg/kg/injection, schedule: Q01DX009 (ip), vehicle: Klucel (hydroxypropylcellulose) (HPC) 95 % of control | endpoint: mean survival time, dose: 200.0 mg/kg/injection, schedule: Q01DX009 (ip), vehicle: Klucel (hydroxypropylcellulose) (HPC) 98 % of control | endpoint: mean survival time, dose: 400.0 mg/kg/injection, schedule: Q01DX009 (ip), vehicle: Klucel (hydroxypropylcellulose) (HPC) 102 % of control

N#CCCCCN=[N+]=[N-]
inactive: endpoint: mean survival time, dose: 75.0 mg/kg/injection, schedule: Q01DX001 (ip), vehicle: saline 97 % of control | endpoint: mean survival time, dose: 150.0 mg/kg/injection, schedule: Q01DX001 (ip), vehicle: saline 103 % of control

CC(=O)c1ccc(O)cc1O
inactive: [7] 102 % of control and 98 % of control | endpoint: mean survival time, dose: 200.0 mg/kg/injection, schedule: Q01DX001 (ip), vehicle: saline 102 % of control and 98 % of control | endpoint: mean survival time, dose: 400.0 mg/kg/injection, schedule: Q01DX001 (ip), vehicle: saline 107 % of control and 104 % of control

[Co+3].[NH-]CC[NH-].[NH-]CC[NH-].[NH-]CC[NH-].[O-][I+2]([O-])O
inactive: endpoint: mean survival time, dose: 100.0 mg/kg/injection, schedule: Q04DX002 (ip), vehicle: saline with Tween-80 100 % of control | endpoint: mean survival time, dose: 200.0 mg/kg/injection, schedule: Q04DX002 (ip), vehicle: saline with Tween-80 96 % of control

CC(C)[C@](O)(C(=O)OCC1=CCN2CC[C@@H](O)[C@@H]12)[C@H](C)O
inactive: endpoint: median survival time, dose: 12.5 mg/kg/injection, schedule: Q01DX009 (ip), vehicle: water 103 % of control | endpoint: median survival time, dose: 25.0 mg/kg/injection, schedule: Q01DX009 (ip), vehicle: water 100 % of control | endpoint: median survival time, dose: 50.0 mg/kg/injection, schedule: Q01DX009 (ip), vehicle: water 98 % of control | endpoint: median survival time, dose: 100.0 mg/kg/injection, schedule: Q01DX009 (ip), vehicle: water 122 % of control | endpoint: median survival time, dose: 200.0 mg/kg/injection, schedule: Q01DX009 (ip), vehicle: water 112 % of control | endpoint: median survival time, dose: 400.0 mg/kg/injection, schedule: Q01DX009 (ip), vehicle: water 112 % of control

CC(CN(C)C)c1ccccn1 (stereo not given)
inactive: [8] 106 % of control | [9] 106 % of control | [10] 106 % of control

CC(C)[Si](F)(c1ccc(Br)cc1)C(C)C
inactive: [1] 108 % of control | [2] 106 % of control | [3] 93 % of control

COc1cc2cc(c1Cl)N(C)C(=O)CC(OC(=O)C(C)N(C)C(=O)C(C)C)C1(C)OC1C(C)C1CC(O)(NC(=O)O1)C(OC)/C=C/C=C(C)C2OC (stereo not given)
inactive: endpoint: median survival time, dose: 4.0 micrograms/kg/injection, schedule: Q01DX009 (ip), vehicle: Klucel (hydroxypropylcellulose) (HPC) 104 % of control | endpoint: median survival time, dose: 8.0 micrograms/kg/injection, schedule: Q01DX009 (ip), vehicle: Klucel (hydroxypropylcellulose) (HPC) 112 % of control | endpoint: median survival time, dose: 16.0 micrograms/kg/injection, schedule: Q01DX009 (ip), vehicle: Klucel (hydroxypropylcellulose) (HPC) 112 % of control | endpoint: median survival time, dose: 64.0 micrograms/kg/injection, schedule: Q01DX009 (ip), vehicle: Klucel (hydroxypropylcellulose) (HPC) 105 % of control

CC(O)c1cc2ccccc2n1C (stereo not given)
inactive: endpoint: mean survival time, dose: 100.0 mg/kg/injection, schedule: Q01DX001 (ip), vehicle: saline with Tween-80 98 % of control | endpoint: mean survival time, dose: 200.0 mg/kg/injection, schedule: Q01DX001 (ip), vehicle: saline with Tween-80 103 % of control | endpoint: mean survival time, dose: 400.0 mg/kg/injection, schedule: Q01DX001 (ip), vehicle: saline with Tween-80 101 % of control

CN(Cc1c[nH]c2nc(N)nc(N)c2c1=O)c1ccc(C(=O)NC(CCC(=O)O)C(=O)O)cc1 (stereo not given)
inactive: endpoint: mean survival time, dose: 0.5 mg/kg/injection, schedule: Q01DX005 (ip), vehicle: sodium bicarbonate 97 % of control and 98 % of control | endpoint: mean survival time, dose: 1.0 mg/kg/injection, schedule: Q01DX005 (ip), vehicle: distilled water + Tween-80 105 % of control | endpoint: mean survival time, dose: 1.0 mg/kg/injection, schedule: Q01DX005 (ip), vehicle: sodium bicarbonate 91 % of control and 108 % of control | endpoint: mean survival time, dose: 2.0 mg/kg/injection, schedule: Q01DX005 (ip), vehicle: distilled water + Tween-80 102 % of control | endpoint: mean survival time, dose: 2.0 mg/kg/injection, schedule: Q01DX005 (ip), vehicle: sodium bicarbonate 97 % of control and 103 % of control | endpoint: mean survival time, dose: 4.0 mg/kg/injection, schedule: Q01DX005 (ip), vehicle: distilled water + Tween-80 100 % of control | endpoint: mean survival time, dose: 4.0 mg/kg/injection, schedule: Q01DX005 (ip), vehicle: sodium bicarbonate 121 % of control and 104 % of control | endpoint: mean survival time, dose: 8.0 mg/kg/injection, schedule: Q01DX005 (ip), vehicle: distilled water + Tween-80 97 % of control | endpoint: mean survival time, dose: 8.0 mg/kg/injection, schedule: Q01DX005 (ip), vehicle: sodium bicarbonate 101 % of control | endpoint: mean survival time, dose: 16.0 mg/kg/injection, schedule: Q01DX005 (ip), vehicle: distilled water + Tween-80 102 % of control | endpoint: mean survival time, dose: 16.0 mg/kg/injection, schedule: Q01DX005 (ip), vehicle: sodium bicarbonate 98 % of control and 102 % of control

Cc1nc2ccccc2nc1CBr
inactive: endpoint: mean survival time, dose: 12.5 mg/kg/injection, schedule: Q01DX009 (ip), vehicle: acetone 110 % of control

O=C(O)C12CCC(CC1)CC2
inactive: [8] 107 % of control | [9] 104 % of control | [10] 104 % of control

CCOS(=O)(=O)c1ccc(Cl)c([N+](=O)[O-])c1
inactive: [4] 100 % of control | [5] 105 % of control | [6] 94 % of control and 100 % of control | [1] 103 % of control

COC(=O)c1ccc(C)cc1C(=O)OC
inactive: [1] 97 % of control | [2] 92 % of control

CCOC1(C)OC2C(CO)OC(n3ccc4c(N)ncnc43)C2O1 (stereo not given)
inactive: [7] 111 % of control
